Source: US11014953B2, “Trigger-activatable metabolic sugar precursors for cancer-selective labeling and targeting” (priority 2015, dated 2021)

Assays:
LS174T tumors = experiment: E-S mediated cancer-selective labeling in vivo, western blot analysis of tissues; set-up: species or system athymic nude mice; conditions: i.v. once daily three days, 24 h p.i.; liver, spleen, heart, lung, kidney
Procedure: (1) Western blot analysis of tissues. LS174T tumor models were established in 6 week-old athymic nude mice by subcutaneous injection of LS174T colon cancer cells (1.5 million) in HBSS/matrigel (1/1, v/v). When the tumors grew to 5-6 mm, E-S (60 mg/kg) was i.v. injected once daily for three days. Mice i.v. administered with Ac4ManAz (40 mg/kg, 10% DMSO in PBS) or PBS were used as control. At 24 h post the last injection, tumors and major organs were harvested, transferred into lysis buffer (2 mL), and homogenized. The lysates were incubated at 4° C. for 30 min, and insoluble debris was removed by centrifugation at 3000 rpm for 10 min. Total soluble protein concentrations were determined by BCA assay and adjusted to 5 mg/mL for each group. The rest of procedures were the same as the abovementioned general procedures for western blot analysis. Azido-labeled protein bands in tumor tissues and healthy tissues of all three groups were visualized and compared to understand the cancer-selective labeling capability of E-S in vivo.

[1] = test system: subcutaneous LS174T tumors; experiment: In vivo tumor labeling after intratumoral injection of azido-sugars, DBCO-Cy5 i.v.; set-up: species or system athymic nude mice
Procedure: In vivo tumor labeling of Ac4ManAz, Ac3ManAzEt, and Ac3ManAzNB. LS174T tumor models were established on 6 week-old athymic nude mice by subcutaneous injection of LS174T colon cancer cells (1.5 million) in HBSS/matrigel (1/1, v/v) to both flanks. When the tumors grew to 5-6 mm, Ac4ManAz or Ac3ManAzEt or Ac3ManAzNB (25 mM, 20 μL) was injected into the left tumors once daily for three days while the same amount of PBS was injected to the right tumors as control (N=3 per group). At 24 h post the last injection, DBCO-Cy5 (5 mg/kg) was i.v. injected and its biodistribution was monitored via in vivo fluorescence imaging. Prior to imaging, nude mice were placed on the sample stage equipped with anesthesia input and output ports, and imaged by the Maestro In-Vivo Fluorescence Imaging System. The excitation filter of 575-605 nm was used. The tunable emission filter was automatically stepped in 10-nm increments from 630 to 850 nm with an exposure time of 50 ms for images taken at each wavelength. Collected images were analyzed by the Maestro software, which uses spectral unmixing algorithms to subtract autofluorescence from Cy5 signals. Tumors and major organs were harvested from mice at 24 h post injection of DBCO-Cy5. Ex vivo images were collected similarly using the Maestro system. Fluorescence intensity at selected ROIs was quantified using Maestro imaging software. All values were presented as means±standard deviation (n=3).
Western blot analysis of tissues. Tumors and organs harvested from azido-sugar treated mice were transferred into glass tubes containing 2 mL of lysis buffer (1% SDS, 100 mM Tris HCl, pH 7.4), homogenized, and incubated at 4° C. for 30 min. The lysates were then centrifuged at 3000 rcf for 10 min to remove the insoluble debris. Total soluble protein concentrations were determined by BCA assay and adjusted to 5 mg/mL for each group. The rest of procedures were the same as the above-mentioned western blot analysis of cells.
Confocal imaging of tumor tissue sections. After ex vivo imaging, tumors were directly frozen in O.C.T. compound and sectioned on a cryostat (Leica CM3050S) with a thickness of 6-8 μm. DAPI in PBS (2 μg/mL) was added onto the tissue-attaching microscope slides to stain cell nucleus. After 10 min, DAPI solution was removed and tissues were washed with PBS for three times. Coverslips were mounted on the microscope slides with the addition of ProLong Gold antifade reagent, and the prepared sample was stored in dark for confocal imaging.

[2] = test system: LS174T colon cancer cells; experiment: Metabolic labeling of LS174T cells with azido-sugars, azides detected by DBCO-Cy5 (confocal imaging, flow cytometry); format: cell-based; conditions: LS174T cells
Procedure: General procedures for confocal imaging of azido-sugar labeled cells. Cells were seeded onto coverslips in a 6-well plate at a cell density of 40 k/well. Ac4ManAz or Ac3ManAz derivatives were added with a final concentration of 50 μM and the cells were incubated at 37° C. for 72 h. The medium was removed and washed with PBS for three times. DBCO-Cy5 (50 μM) in Opti-MEM was then added and the cells were incubated for another 1 h. Then the medium was removed and the cells were washed with PBS for three times. 4% paraformaldehyde (PFA) solution was added to fix the cells for 10 min, followed by staining of cell nucleus with DAPI (2 μg/mL) for 10 min. The coverslips were mounted on microscope slides with the addition of ProLong Gold antifade reagent, and the prepared sample was stored in dark for imaging.
General procedures for flow cytometry analysis of azido-sugar labeled cells. Cells were seeded onto coverslips in a 6-well plate at a cell density of 40 k/well. Ac4ManAz or Ac3ManAz derivatives were added and incubated with cells for 72 h. After removal of medium and multiple washing steps, DBCO-Cy5 in opti-MEM was added and incubated with cells at 37° C. for 1 h. The opti-MEM was then removed and cells were washed with PBS for three times. Cells were lifted by incubating with trypsin solution (1 mL) at 37° C. for 3 min and transferred to test tubes with addition of 4% PFA solution (0.5 mL). Twenty thousand cells per sample were analyzed by flow cytometry and data analysis was performed on the FCS Express software.
Ac3ManAzNB mediated controlled cell labeling. LS174T cells were seeded onto coverslips in a 6-well plate at a cell density of 40 k/well. Ac3ManAzNB with a final concentration of 50 μM was added. […] Cells without UV irradiation were continuously incubated for 72 h. Cell samples for confocal imaging and flow cytometry were then prepared following the above-mentioned procedures.
Ac3ManAzHQ mediated controlled cell labeling. LS174T colon cancer cells or Caco-2 colon cancer cells or human fibroblast IMR90 cells were seeded onto coverslips in a 6-well plate at a cell density of 40 k/well and allowed to attach for overnight. Ac3ManAzHQ with a final concentration of 50 μM was added, followed by the addition of curcumin with a final concentration of 50 μM. Cells treated with PBS or Ac3ManAzHQ only were used as control. After 72-h incubation, cell samples for confocal imaging and flow cytometry were prepared following the above-mentioned procedures.
E-S mediated controlled cell labeling in vitro. LS174T colon cancer cells or human fibroblast IMR90 cells were seeded onto coverslips in a 6-well plate at a cell density of 40 k/well. E-S with a final concentration of 50 μM was added, followed by the addition of either TSA (1 μM) or Z-FY-CHO (50 μM). Cells treated with PBS or E-S only were used as the control. After 72-h incubation, the medium was removed and cell samples for confocal imaging and GE-Analyzer measurements were prepared similarly to above-mentioned procedures.

LS174T cells = experiment: Western blot analysis of LS174T cells treated with azido-sugars; format: cell-based; conditions: 72 h
Procedure: Western blot analysis of cells treated with azido-sugars. LS174T cells were seeded onto cell culture flasks (25 cm^2 growth area) at a density of 1×10^6 cells per plate in 5 mL of media. Different azido-sugars were added and incubated with cells for 72 h. The cells were washed with PBS twice and harvested from the flasks using a cell scraper. Cells were pelleted by centrifugation at 1000 rpm for 5 min and re-suspended in 200 μL of lysis buffer (1% SDS, 100 mM Tris.HCl, pH 7.4) containing 1 tablet protease inhibitor (EDTA-free). The lysate was incubated at 4° C. for 30 min, followed by centrifugation at 3000 rcf for 10 min to remove insoluble debris. The total concentration of soluble protein in each sample was determined by bicinchoninic acid (BCA) assay and adjusted to the same concentration. Then 20 μL of the lysate was taken out and incubated with phosphine-PEG3-biotin (2 μL, 5 mM in PBS) at 37° C. for 6 h. Loading buffer was added to each sample and samples were loaded onto 10% SDS-PAGE gel after heating at 95° C. After running the gel for 100 min, proteins were transferred to Hybond P membrane, followed by blocking of the membrane with 5% bovine serum albumin (BSA) in TBST (50 mM Tris.HCl, 150 mM NaCl, 0.1% Tween 20, pH 7.4) for 2 h. The membrane was then incubated with streptavidin-HRP (diluted 1:2000 in TBST) overnight at 4° C., rinsed with TBST for three times and developed by ECL Western Blotting Substrate. For fluorescent visualization of protein bands, 20 μL of cell lysate was directly incubated with DBCO-Cy3 solution for 3 h. After the gel running and membrane transfer, protein bands were visualized using an Image Quant LAS 4010 system with a Cy3/Cy3 (excitation/emission) channel.

[3] = in vivo
Procedure: Liver, heart, kidneys, spleen, brain, sternum and spinal cord (cervical thoracic and lumbar) were fixed in formalin, paraffin-embedded, sectioned with a thickness of 4 μm, and stained with H&E. Tissues were analyzed by a board-certified pathologist to investigate treatment-mediated toxicity. These analyses were performed by a board certified pathologist.

CC(=O)OC[C@H]1OC(OC(C)=O)[C@@H](NC(=O)CN=[N+]=[N-])[C@@H](OC(C)=O)[C@@H]1OC(C)=O (stereo partly drawn) [Ac4ManAz, tetraacetyl N-azidoacetylmannosamine]
Azido-modified proteins in normal tissues (western blot) (LS174T tumors): non-specific labeling in normal tissues
In vivo Cy5 fluorescence intensity of pretreated left tumors vs control right tumors ([1]; 24 h p.i. of i.v. DBCO-Cy5): much stronger Cy5 fluorescence intensity
Ex vivo increase in Cy5 FI compared to the control tumors ([1]; ex vivo imaging of tumors): over 4 fold
Western blot of tumors (azido-modified glycoproteins) ([1]; intratumoral once daily for three days, tumors harvested 24 h p.i.): a series of azido-modified glycoproteins
Cy5 fluorescence of tumor sections (confocal imaging) ([1]; tumor sections after ex vivo imaging): strong Cy5 fluorescence
Cy5 fluorescence on the cell surface (CLSM) ([2]; 50 μM azido-sugar three days (72 h), then DBCO-Cy5 1 h): strong Cy5 fluorescence on the cell surface
Cy5 fluorescence by flow cytometry ([2]; compared with cells treated with Ac3ManAzEt or PBS): significantly enhanced Cy5 fluorescence
Western blot of azido-glycoproteins (biotinylated with phosphine-PEG3-biotin) (LS174T cells): a series of protein bands

COc1cccc2c1C(=O)c1c(O)c3c(c(O)c1C2=O)C[C@@](O)(C(=O)CO)C[C@@H]3O[C@H]1C[C@H](N)[C@H](O)[C@H](C)O1 [Doxo, doxorubicin]
Toxicity in mouse tissues (bone marrow, spleen) [3]: much greater toxicity
